Columns and labels:
HCT116 = assay: In vitro cytotoxicity (SRB assay), HCT116; format: cell-based; settings: Homo sapiens, HCT-116, 72 hours
Procedure: Cell lines and cell culture. HCT116, U205, PANC-1, MDA-231 cell lines were purchased from the American Type Culture Collection (Rockville, Md., US). Cells were cultured in the DMEM medium (Lonza, Basel, Switzerland) containing 10% fetal bovine serum (Gibco, Grand Island, N.Y., US), 100 Units/ml penicillin, 100 Units/mL streptomycin, […] L-glutamine (Gibco, Grand Island, N.Y., US) at 37° C. in a humidified atmosphere with 5% CO2.
In vitro cytotoxicity assays. […] SRB assay (Vichai and Kirtikara, 2006) was performed and the absorbance at 510 nm was read with a plate reader. The proliferation rate was calculated according to the Manufacturer's instruction. The IC50 value for each compound was determined from dose-effect relationship using the CompuSyn software (version 1.0.1; CompuSyn, Inc, Paramus, N.J.) (Chou, 2006). Cell proliferating doubling time was monitored over a period of 72 hours.

HCT116 cells [1] = assay: dNTP amount in treated cells; format: cell-based, human
Excerpt: The effect of DHS on dNTP synthesis was investigated by measuring the amount of dNTPs in DHS-treated HCT116 cells.

RRM2 = target: T1, RRM2 (Homo sapiens, UniProt P31350); assay: Ubiquitination assay; format: cell-based; settings: HCT116 cells, with MG-132 pre-treatment
T1 construct: endogenous in cells; host or cells: HCT116
T1 sequence (P31350 1-389): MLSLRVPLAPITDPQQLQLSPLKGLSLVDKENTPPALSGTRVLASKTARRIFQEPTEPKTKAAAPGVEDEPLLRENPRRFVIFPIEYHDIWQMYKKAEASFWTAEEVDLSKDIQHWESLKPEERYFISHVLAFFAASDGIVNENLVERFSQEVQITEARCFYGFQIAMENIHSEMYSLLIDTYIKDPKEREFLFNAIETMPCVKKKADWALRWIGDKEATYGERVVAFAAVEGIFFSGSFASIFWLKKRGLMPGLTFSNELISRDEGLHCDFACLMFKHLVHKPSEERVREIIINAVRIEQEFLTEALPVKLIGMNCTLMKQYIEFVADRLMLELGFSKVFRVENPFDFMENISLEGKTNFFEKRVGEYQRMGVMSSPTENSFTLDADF
Procedure: It was next investigated whether treatment with DHS leads to reduced levels of RRM2 through the proteasome degradation pathway. […] To confirm whether degradation of RRM1 is dependent on RRM2, RRM1 or RRM2 expression was knocked down by treatment with siRNAs and resultant protein amounts were detected. […] Next, a ubiquitination assay with MG-132 pre-treatment was performed to determine whether a ubiquitination reaction is involved in DHS-mediated RRM2 degradation. […] According to the literature, Cyclin F is the E3 ligase that ubiquitinates RRM2 (D'Angiolella et al., 2012). Thus, the amount of RRM2 in cells was determined after knockdown of Cyclin F by siRNA. […] Cell viability after DHS exposure was also investigated in cells in which either RRM2 or Cyclin F expression was knocked down by siRNA.

SKOV3 = assay: DHS and cisplatin, SKOV3 cells; format: cell-based, human
Excerpt: The effect of DHS on a human SKOV3 ovarian cell line and its cisplatin-resistant subline, SKOV3/CP7, was investigated.

RRM1 and RRM2 proteins = target: T2, RRM1 and RRM2 proteins (Homo sapiens, UniProt P31350); assay: RRM1 and RRM2 protein levels by Western blot; format: cell-based; settings: HCT116 cells
T2 construct: endogenous in cells; host or cells: HCT116
Procedure: Western blot analysis. Compound-treated cells were harvested and lysed. Protein extracts were subjected to electrophoresis in a SDS-polyacrylamide gel. The resolved proteins were transferred onto polyvinylidene difluoride membranes (Amersham Biosciences, Piscataway, N.J., US). After the blocking step, membranes were incubated with primary IgG antibodies, washed, and then incubated with horseradish peroxidase-conjugated anti-rabbit IgG or anti-mouse IgG secondary antibodies. Western blot signals were visualized by chemiluminescence using SuperSignal West Pico chemiluminescence reagent (Pierce, Rockford, Ill., US).
The effect of DHS treatment on And-1, RRM1, and RRM2 expression was investigated.

plasmid DNA = assay: Incubation with plasmid DNA, UV absorption; format: binding
Excerpt: In addition, resveratrol has been previously reported to interact with DNA grooves (Usha et al., 2006). […] A similar result with And-1, RRM1, and RRM2 was also observed in DHS resistant HCT116 cells (data not shown).

HCT116 cells [2] = assay: Comet assay; format: cell-based, human; settings: 2.5 μM for 24 hours
Procedure: Comet assay. HCT116 cells were treated with DHS for 0.5 or 24 hours. Afterward, the cells were irradiated with X-rays at a dose of 20 Gy. An aliquot of 80 μL cell suspension were mixed with 400 μL 1.2% low melting point agarose and plated on Fisherfinest microscope slide (Thermo Scientific, Pittsburgh, Pa., US), which had already been layered with 120 μL 1% agarose gel. Cells were then lysed and DNA was electrophoretically separated. The gels were neutralized before staining with 60 μL of 5 μM SYBR green. The shape of the stained DNA mass in at least 50 cells in each sample was analyzed with OpenComet software (MA, US).
To investigate whether inhibition of DNA replication by DHS can trigger DNA damage, the DNA damage markers phosphor-Chk1 (pChk1, Serine 345) and phosphor-Chk2 (pChk2, Threonine 68) were analyzed in DHS-treated HCT116 cells. […] A comet assay was next used to test if DNA double strand breaks are induced by DHS.

And-1 = target: T3, And-1 (Homo sapiens, UniProt O75717); assay: Cellular thermal shift assay, And-1; format: cell-based; settings: HCT116 cells
T3 construct: endogenous in cells; host or cells: HCT116
T3 sequence (O75717 whole entry): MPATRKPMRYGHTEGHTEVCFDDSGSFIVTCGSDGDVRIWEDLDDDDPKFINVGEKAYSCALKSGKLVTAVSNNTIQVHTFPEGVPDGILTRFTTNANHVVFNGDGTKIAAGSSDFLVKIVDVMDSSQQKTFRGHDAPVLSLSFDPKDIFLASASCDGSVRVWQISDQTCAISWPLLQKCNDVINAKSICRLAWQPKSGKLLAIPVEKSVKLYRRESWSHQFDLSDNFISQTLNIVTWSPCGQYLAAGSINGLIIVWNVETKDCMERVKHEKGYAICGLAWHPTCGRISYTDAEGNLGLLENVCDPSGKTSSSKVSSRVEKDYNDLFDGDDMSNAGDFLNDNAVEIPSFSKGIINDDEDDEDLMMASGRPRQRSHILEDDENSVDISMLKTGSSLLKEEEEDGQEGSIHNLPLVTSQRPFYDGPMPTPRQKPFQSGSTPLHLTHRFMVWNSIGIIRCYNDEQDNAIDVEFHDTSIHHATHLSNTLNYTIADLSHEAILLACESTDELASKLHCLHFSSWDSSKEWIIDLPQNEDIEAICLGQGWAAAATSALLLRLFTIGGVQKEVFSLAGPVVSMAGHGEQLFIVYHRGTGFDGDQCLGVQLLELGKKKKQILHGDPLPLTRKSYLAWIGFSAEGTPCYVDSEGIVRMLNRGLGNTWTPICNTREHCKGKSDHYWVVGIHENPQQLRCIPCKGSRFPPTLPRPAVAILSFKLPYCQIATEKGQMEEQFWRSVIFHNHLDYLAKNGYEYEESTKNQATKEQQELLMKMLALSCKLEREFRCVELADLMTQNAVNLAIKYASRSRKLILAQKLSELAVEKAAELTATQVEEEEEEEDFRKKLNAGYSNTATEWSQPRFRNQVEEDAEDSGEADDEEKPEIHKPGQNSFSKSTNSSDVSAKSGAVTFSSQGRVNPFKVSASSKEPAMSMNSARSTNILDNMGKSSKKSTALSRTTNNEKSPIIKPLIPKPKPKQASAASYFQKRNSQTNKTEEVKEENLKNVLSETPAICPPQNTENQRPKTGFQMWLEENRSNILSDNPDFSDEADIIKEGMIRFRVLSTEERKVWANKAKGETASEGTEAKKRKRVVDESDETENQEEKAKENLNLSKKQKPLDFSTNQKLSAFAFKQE
Procedure: In order to study the mechanisms by which DHS induces down-regulation of And-1, RRM1, and RRM2 proteins, DHS-resistant HCT116 cells were generated (FIG. 9C). […] Next, it was investigated whether DHS directly binds to And-1, RRM1, or RRM2. A cellular thermal shift assay (Jafari et al., 2014) was conducted for And-1 (FIG. 9E). […] A coimmunoprecipitation (CoIP) assay was conducted to determine whether And-1, RRM1, and RRM2 interact in the same complex. The result implied that […] (FIG. 9F).

UV absorption on incubation with plasmid DNA (DNA binding) (plasmid DNA): increased UV absorption | Binding to And-1 (cellular thermal shift) (And-1): does not bind to And-1
SMILES: Oc1ccc(/C=C/c2ccc(O)cc2)cc1 [DHS, 4,4′-trans-dihydroxystilbene]
IC50 (HCT116): 2300 ± 780 nM | dNTP synthesis (HCT116 cells [1]): inhibited synthesis of dATP, dCTP, dGTP, and dTTP | Ubiquitinated RRM2 (RRM2): ubiquitinated RRM2 was increased by DHS treatment | Sensitivity to DHS alone (SKOV3): sensitive to DHS treatment alone | RRM1 and RRM2 protein levels (RRM1 and RRM2 proteins): caused down-regulation of RRM1 and RRM2 proteins | DNA double strand breaks (lengths of tail moments) (HCT116 cells [2]): caused significant DNA double strand breaks

Source: US11160767B2, “4,4′-trans-dihydroxystilbene for use in treating cancer” (The George Washington University, a Congressionally …, priority 2017, dated 2021)
